Results on 4 compounds are retold here after patent publication US12240815B2, “Potent and selective human neuronal nitric oxide synthase inhibitors” (Northwestern University, priority 2020, dated 2025).

Counter-ions that a name gives are not always drawn. Like-named read-outs stand apart in the source and are kept apart here.

Test [1] has as its target rat nNOS (Rattus norvegicus, UniProt P29476). The test is described as follows: NO hemoglobin capture assay, rat nNOS. The test is classed as biochemical.
Test [2] has as its target human nNOS (Homo sapiens, UniProt P29475). Put plainly: NO hemoglobin capture assay, human nNOS. It counts as biochemical. The following applies: Table 5; for Ki: Ki from IC50 by Cheng-Prusoff, 8 to 11 concentrations, read-out: Ki HnNOS.
The target in test [3] is human iNOS (Homo sapiens, UniProt P35228). Put plainly: NO hemoglobin capture assay, human iNOS.
The target of test [4] is human eNOS (Homo sapiens, UniProt P29474). The test is described as follows: NO hemoglobin capture assay, human eNOS.
Test [5] addresses murine macrophage iNOS (Mus musculus, UniProt P29477). The test is described as follows: NO hemoglobin capture assay, murine iNOS. It counts as biochemical. As to conditions: pH 7.4.
The mark [6] stands for this setting: read-out: Ki HiNOS, Table 5, Ki from IC50 by Cheng-Prusoff, 8 to 11 concentrations.

Chain of human nNOS (P29475 whole entry): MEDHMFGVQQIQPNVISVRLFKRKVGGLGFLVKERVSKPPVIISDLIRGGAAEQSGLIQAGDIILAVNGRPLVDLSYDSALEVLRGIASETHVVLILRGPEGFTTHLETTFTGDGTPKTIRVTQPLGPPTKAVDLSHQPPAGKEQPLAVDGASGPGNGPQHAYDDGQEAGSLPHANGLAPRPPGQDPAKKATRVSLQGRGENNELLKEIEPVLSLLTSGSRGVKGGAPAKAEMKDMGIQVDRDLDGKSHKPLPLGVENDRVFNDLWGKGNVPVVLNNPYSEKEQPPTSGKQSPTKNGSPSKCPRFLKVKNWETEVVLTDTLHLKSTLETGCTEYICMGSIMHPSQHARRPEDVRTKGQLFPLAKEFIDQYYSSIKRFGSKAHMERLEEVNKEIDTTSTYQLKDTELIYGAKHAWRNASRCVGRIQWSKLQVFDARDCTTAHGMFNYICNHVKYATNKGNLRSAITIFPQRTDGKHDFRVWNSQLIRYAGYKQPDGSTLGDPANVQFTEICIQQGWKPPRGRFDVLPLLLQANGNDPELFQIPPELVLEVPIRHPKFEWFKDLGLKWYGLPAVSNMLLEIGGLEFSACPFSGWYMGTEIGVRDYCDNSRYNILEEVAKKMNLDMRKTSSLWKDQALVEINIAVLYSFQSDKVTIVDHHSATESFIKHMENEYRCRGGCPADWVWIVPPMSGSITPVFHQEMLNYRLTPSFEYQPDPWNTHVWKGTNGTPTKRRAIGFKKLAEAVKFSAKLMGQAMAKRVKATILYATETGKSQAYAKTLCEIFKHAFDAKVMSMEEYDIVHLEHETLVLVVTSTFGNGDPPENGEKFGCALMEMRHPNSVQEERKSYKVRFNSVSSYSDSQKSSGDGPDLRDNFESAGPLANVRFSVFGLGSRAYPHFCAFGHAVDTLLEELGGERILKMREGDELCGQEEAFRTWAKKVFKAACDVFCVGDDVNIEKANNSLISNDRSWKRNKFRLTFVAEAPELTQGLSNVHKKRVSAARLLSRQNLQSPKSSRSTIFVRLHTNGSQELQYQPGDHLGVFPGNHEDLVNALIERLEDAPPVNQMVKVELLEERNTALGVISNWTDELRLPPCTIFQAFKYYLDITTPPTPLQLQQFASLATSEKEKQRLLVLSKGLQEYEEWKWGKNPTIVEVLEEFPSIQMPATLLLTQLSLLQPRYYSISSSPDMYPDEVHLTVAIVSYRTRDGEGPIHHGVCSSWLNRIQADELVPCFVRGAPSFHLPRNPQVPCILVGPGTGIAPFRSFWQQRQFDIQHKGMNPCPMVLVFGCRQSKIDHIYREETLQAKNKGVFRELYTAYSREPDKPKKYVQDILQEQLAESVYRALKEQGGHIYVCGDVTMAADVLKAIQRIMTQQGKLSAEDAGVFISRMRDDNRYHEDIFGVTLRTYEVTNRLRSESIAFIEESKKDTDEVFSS
Chain of rat nNOS (P29476 whole entry): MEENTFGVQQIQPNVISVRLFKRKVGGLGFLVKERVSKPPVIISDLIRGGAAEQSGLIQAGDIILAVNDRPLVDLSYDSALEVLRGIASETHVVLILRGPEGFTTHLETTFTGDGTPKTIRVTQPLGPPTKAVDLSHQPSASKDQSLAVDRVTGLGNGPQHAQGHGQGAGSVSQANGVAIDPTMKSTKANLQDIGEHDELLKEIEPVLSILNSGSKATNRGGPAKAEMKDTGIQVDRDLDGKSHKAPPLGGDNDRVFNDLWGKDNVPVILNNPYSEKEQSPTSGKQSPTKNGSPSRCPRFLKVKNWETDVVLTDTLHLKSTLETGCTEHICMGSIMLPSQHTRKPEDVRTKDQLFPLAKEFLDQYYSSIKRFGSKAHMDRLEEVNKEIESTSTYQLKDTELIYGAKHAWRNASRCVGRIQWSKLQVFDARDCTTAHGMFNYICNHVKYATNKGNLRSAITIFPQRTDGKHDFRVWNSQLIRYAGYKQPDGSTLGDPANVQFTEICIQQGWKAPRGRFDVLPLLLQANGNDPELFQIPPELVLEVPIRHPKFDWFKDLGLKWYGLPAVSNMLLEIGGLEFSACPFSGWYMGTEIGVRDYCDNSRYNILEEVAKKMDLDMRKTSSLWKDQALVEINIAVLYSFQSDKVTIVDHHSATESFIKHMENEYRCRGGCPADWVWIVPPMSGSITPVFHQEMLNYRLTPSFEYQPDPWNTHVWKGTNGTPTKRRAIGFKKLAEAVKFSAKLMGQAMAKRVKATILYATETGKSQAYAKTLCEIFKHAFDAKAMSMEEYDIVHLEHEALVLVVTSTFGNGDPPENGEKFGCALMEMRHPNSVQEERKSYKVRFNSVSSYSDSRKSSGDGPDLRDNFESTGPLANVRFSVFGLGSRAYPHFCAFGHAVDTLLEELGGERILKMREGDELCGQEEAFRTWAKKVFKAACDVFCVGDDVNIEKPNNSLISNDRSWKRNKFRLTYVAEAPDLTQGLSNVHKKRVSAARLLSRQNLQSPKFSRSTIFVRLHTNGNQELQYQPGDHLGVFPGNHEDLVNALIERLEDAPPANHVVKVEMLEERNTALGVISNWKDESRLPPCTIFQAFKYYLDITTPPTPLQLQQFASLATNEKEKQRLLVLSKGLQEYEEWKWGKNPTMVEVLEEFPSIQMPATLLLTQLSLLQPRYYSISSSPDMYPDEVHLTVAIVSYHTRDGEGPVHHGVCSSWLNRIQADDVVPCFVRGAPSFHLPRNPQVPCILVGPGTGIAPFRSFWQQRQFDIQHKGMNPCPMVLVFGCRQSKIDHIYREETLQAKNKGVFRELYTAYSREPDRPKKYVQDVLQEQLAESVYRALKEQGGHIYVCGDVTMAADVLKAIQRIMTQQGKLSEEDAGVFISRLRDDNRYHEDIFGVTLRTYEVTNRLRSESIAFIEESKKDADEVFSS

For `CNCC#Cc1cc(C)cc(N)n1` [Compound 71, 4-Methyl-6-(3-(methylamino)prop-1-yn-1-yl)pyridin-2-amine hydrochloride], the Ki in test [1] (Table 5, Ki from IC50 by Cheng-Prusoff, 8 to 11 concentrations, read-out: Ki RnNOS) amounted to 88 nM; in test [2], 92 nM; in test [3] (setting [6]), 3580 nM. For the same compound, in test [2], the Selectivity hn/rn is listed as 1.0.
As for `Cc1cc(N)nc(CCc2cc(CCCN(C)C)cc(F)c2F)c1` [Compound 10, 6-(5-(3-(dimethylamino)propyl)-2,3-difluorophenethyl)-4-methylpyridin-2-amine], the Ki worked out at 19 nM in test [1] (pH 7.4, read-out: Ki rat nNOS); 35000 nM in test [4] (read-out: Ki human eNOS); 823 nM in test [5]; 1310 nM in test [3] (read-out: Ki human iNOS).
In the case of `Cc1cc(N)nc(CCCN(C)C)c1` [Compound 69, 6-(3-(Dimethylamino)propyl)-4-methylpyridin-2-amine hydrochloride], the Ki in test [4] was 537 nM; in test [2], 29 nM; in test [3] (setting [6]) it was 2830 nM.
Turning to `Cc1cc(N)nc(CCCN2CCN(C)CC2)c1` [Compound 72, 4-Methyl-6-(3-(4-methylpiperazin-1-yl)propyl)pyridin-2-amine], the Ki in test [1] (read-out: Ki RnNOS) stood at 55 nM; in test [2], 171 nM; in test [3] (setting [6]), 10200 nM. Moreover, the Selectivity hn/rn in test [2] is listed as 3.0.
